From US12594267B2, “Capsid inhibitors for the treatment of HIV” (Gilead Sciences, Inc., priority 2018, dated 2026)
Read-outs that look alike come from different tables or passages of the source.

Tests used:
Format in all cases: cell-based, HIV-1
[1] = test system: WT HXB2D; assay: Cytopathic antiviral assay in MT-2 cells, wild type HXB2D; details: Human immunodeficiency virus 1, MT2, read-out: WT HXB2D EC50, MT-2 cells, mean ± s.d. of three experiments in triplicate
Protocol: (§1) The antiviral activity of the compound of Formula (a) was tested against a panel of known HIV-1 mutants resistant to HIV PIs (ATV and DRV), NRTIs (TFV and FTC), NNRTIs (RPV and EFV) or INSTIs (RAL, EVG and DTG) using a cytopathic antiviral assay in MT-2 cells. The compound of Formula (Ia) was fully active against all tested mutants resistant to PIs (Table 11), NRTIs (Table 12), NNRTIs (Table 13) or INSTIs (Table 14).

[2] = test system: WT LAI; assay: microbe, parasite or virus in culture; details: Human immunodeficiency virus 1, MT2, read-out: WT LAI EC50
Protocol: (§2) The antiviral activity of the compound of Formula (a) was tested against a panel of known HIV-1 mutants resistant to HIV PIs (ATV and DRV), NRTIs (TFV and FTC), NNRTIs (RPV and EFV) or INSTIs (RAL, EVG and DTG) using a cytopathic antiviral assay in MT-2 cells.

[3] = test system: PI-resistant viruses; assay: Cytopathic antiviral assay in MT-2 cells, PI-resistant viruses; details: Mutant/WT (HXB2D) EC50 ratio, mean ± s.d. of three experiments
Protocol: as §1

[4] = test system: NRTI-resistant viruses; details: Mutant/WT (LAI) EC50 ratio, MT-2 cells, mean ± s.d. of three experiments
Protocol: as §2

[5] = test system: INSTI-resistant viruses; assay: Cytopathic antiviral assay in MT-2 cells, INSTI-resistant viruses; details: Mutant/WT (HXB2D) EC50 ratio, mean ± s.d. of three experiments
Protocol: as §1

[6] = test system: NNRTI-resistant viruses; assay: Cytopathic antiviral assay in MT-2 cells, NNRTI-resistant viruses; details: Mutant/WT (HXB2D) EC50 ratio, mean ± s.d. of three experiments
Protocol: as §1

[7] = INSTI-resistance panel (Table 14)

SMILES: COc1cc2c(cc1Cc1cccc(Cl)c1F)c(=O)c(C(=O)O)cn2[C@H](CO)C(C)C [EVG, elvitegravir]
- EC50 [1, 7]: 1.87 ± 0.19 nM
- EC50 ([1]; PI-resistance panel (Table 11)): 2.02 ± 0.88 nM
- EC50 [2]: 2.64 ± 0.9 nM
- EC50 Fold-Change ([3]; G48V/V82A/L90M): 0.8 ± 0.4
- EC50 Fold-Change ([3]; G48V/V82S): 0.7 ± 0.3
- EC50 Fold-Change ([3]; I50V): 1.7 ± 1.0
- EC50 Fold-Change ([3]; I84V/L90M): 1.0 ± 0.7
- EC50 Fold-Change ([4]; 6TAMs): 0.6 ± 0.4
- EC50 Fold-Change ([4]; K65R): 0.8 ± 0.2
- EC50 Fold-Change ([4]; M184V): 1.1 ± 0.7
- EC50 Fold-Change ([5]; E92Q/N155H): >53.5
- EC50 Fold-Change ([5]; E138K/Q148K): >53.5
- EC50 Fold-Change ([5]; G140S/Q148R): >53.5
- EC50 Fold-Change ([5]; N155H/Q148R): 51.0 ± 2.5
- EC50 Fold-Change ([5]; R263K/M50I): 5.1 ± 3.7
- EC50 Fold-Change ([5]; Y143R): 2.1 ± 0.2

SMILES: Nc1nc(=O)n([C@@H]2CS[C@H](CO)O2)cc1F [FTC, emtricitabine]
- EC50 [2]: 2.41 ± 1.16 nM
- EC50 Fold-Change ([4]; 6TAMs): 4.1 ± 2.5
- EC50 Fold-Change ([4]; K65R): 12.8 ± 2.4
- EC50 Fold-Change ([4]; M184V): >20.8

SMILES: COC(=O)N[C@H](C(=O)N[C@@H](Cc1ccccc1)[C@@H](O)CN(Cc1ccc(-c2ccccn2)cc1)NC(=O)[C@@H](NC(=O)OC)C(C)(C)C)C(C)(C)C [ATV, atazanavir]
- EC50 [1, 7]: 3.7 ± 1.07 nM
- EC50 ([1]; NNRTI-resistance panel (Table 13)): 4.6 ± 1.48 nM
- EC50 ([1]; PI-resistance panel (Table 11)): 4.18 ± 0.46 nM
- EC50 [2]: 4.78 ± 1.26 nM
- EC50 Fold-Change ([3]; G48V/V82A/L90M): 32.5 ± 11.9
- EC50 Fold-Change ([3]; G48V/V82S): 15.4 ± 3.1
- EC50 Fold-Change ([3]; I50V): 3.5 ± 0.4
- EC50 Fold-Change ([3]; I84V/L90M): 33.1 ± 7.8
- EC50 Fold-Change ([4]; 6TAMs): 0.5 ± 0.2
- EC50 Fold-Change ([4]; K65R): 0.9 ± 0.3
- EC50 Fold-Change ([4]; M184V): 0.6 ± 0.2
- EC50 Fold-Change ([6]; K103N): 0.6 ± 0.3
- EC50 Fold-Change ([6]; K103N/Y181C): 0.6 ± 0.3
- EC50 Fold-Change ([6]; L100I/K103N): 0.6 ± 0.3
- EC50 Fold-Change ([6]; Y181C): 1.8 ± 1.0
- EC50 Fold-Change ([6]; Y188L): 0.6 ± 0.3
- EC50 Fold-Change ([5]; E92Q/N155H): 1.0 ± 0.4
- EC50 Fold-Change ([5]; E138K/Q148K): 0.8 ± 0.3
- EC50 Fold-Change ([5]; G140S/Q148R): 1.1 ± 0.5
- EC50 Fold-Change ([5]; N155H/Q148R): 0.9 ± 0.4
- EC50 Fold-Change ([5]; R263K/M50I): 1.1 ± 0.6
- EC50 Fold-Change ([5]; Y143R): 0.8 ± 0.2
